Values of other authors in patent publication US20120093797A1, “COMBINED USE OF CREATINE PHOSPHATE AND CREATINE PHOSPHOKINASE FOR TREATMENT OF ARTERIOSCLEROSIS” (ARTCELL INVEST LTD., priority 2009, published 2012).

Half-life of CP: 4 to 7 min
Compound: CN(CC(=O)O)C(=N)NP(=O)(O)O [CP, 2-[(amino-phosphonoimino-methyl)-methyl-amino]acetic acid]
